Here are results for 4 compounds from ChEMBL document CHEMBL1132892, “Cyclic thioether peptide mimetics as VCAM-VLA-4 antagonists” (Bioorg Med Chem Lett, 2000).

Molecules are shown by their SMILES.

Experiment [1] deals with T1, Integrin alpha-4 (Homo sapiens, UniProt P13612).
T1 sequence (P13612 whole entry): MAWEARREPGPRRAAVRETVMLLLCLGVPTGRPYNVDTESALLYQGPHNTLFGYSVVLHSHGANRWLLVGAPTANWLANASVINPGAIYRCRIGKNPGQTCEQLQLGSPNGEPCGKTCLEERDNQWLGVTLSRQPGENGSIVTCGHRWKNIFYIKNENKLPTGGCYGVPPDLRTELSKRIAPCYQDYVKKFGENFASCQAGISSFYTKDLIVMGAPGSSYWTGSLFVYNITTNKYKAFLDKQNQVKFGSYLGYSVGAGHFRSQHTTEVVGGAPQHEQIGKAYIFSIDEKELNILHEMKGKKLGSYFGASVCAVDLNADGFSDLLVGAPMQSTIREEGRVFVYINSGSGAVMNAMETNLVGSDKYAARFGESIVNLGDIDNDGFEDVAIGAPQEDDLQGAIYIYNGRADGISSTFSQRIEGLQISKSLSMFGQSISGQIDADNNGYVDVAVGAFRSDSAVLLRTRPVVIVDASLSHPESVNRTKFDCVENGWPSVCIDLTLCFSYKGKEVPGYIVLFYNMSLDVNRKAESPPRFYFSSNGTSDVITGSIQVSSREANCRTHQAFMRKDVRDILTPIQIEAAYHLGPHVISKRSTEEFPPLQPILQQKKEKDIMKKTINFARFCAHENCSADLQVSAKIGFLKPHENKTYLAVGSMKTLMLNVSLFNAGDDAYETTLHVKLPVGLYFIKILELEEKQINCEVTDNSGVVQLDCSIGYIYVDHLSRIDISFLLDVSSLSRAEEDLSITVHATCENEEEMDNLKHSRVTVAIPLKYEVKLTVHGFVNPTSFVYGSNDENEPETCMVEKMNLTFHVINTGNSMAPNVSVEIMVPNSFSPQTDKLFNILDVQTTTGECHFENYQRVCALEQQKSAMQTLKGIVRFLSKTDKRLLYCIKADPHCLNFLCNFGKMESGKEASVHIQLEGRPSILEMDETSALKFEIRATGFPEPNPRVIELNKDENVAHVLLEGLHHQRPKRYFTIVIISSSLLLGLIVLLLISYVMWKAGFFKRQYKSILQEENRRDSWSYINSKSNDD
The experiment can be described thus: Compound was evaluated for VCAM-VLA-4 antagonistic activity using solid phase assay. It is filed as functional.

For experiment [2], the target named is T1, Integrin alpha-4. Kind of experiment: Compound was evaluated for VCAM-VLA-4 antagonistic activity using Ramos cell assay. It is filed as functional, cell-based.

What is called IC50 is the concentration needed to halve the response being measured. Read a low IC50 as higher potency. Consider `CC(=O)N1CCC(c2ccc(O)cc2)C1C(=O)N[C@H]1CCSCC[C@@H](C(=O)O)NC(=O)C2(CCCC2)CCNC1=O` (some centres not stated), for which the 50% inhibitory concentration (IC50) at Integrin alpha-4 [1] is 35 nM. That is a double-digit nanomolar value. On to `CC(=O)N1CCC(c2ccc(O)cc2)C1C(=O)N[C@H]1CCSC[C@@H](C(=O)O)NC(=O)C2(CCCC2)CCNC1=O` (some centres not stated), for which the half-maximal inhibitory concentration (IC50) was 2.7 nM on Integrin alpha-4 [1] and 220 nM at Integrin alpha-4 [2]. On the same counts, the results for `CC(=O)N1CCC(c2ccc(O)cc2)C1C(=O)N[C@H]1CSSC[C@@H](C(=O)O)NC(=O)C2(CCCC2)CCNC1=O` (some centres not stated) are 0.1 nM and 1.5 nM.

`CC(=O)N1CCC(c2ccc(O)cc2)C1C(=O)N[C@H]1CSCC[C@@H](C(=O)O)NC(=O)C2(CCCC2)CCNC1=O` (some centres not stated): the IC50 is 0.5 nM against Integrin alpha-4 [1] and 20 nM against Integrin alpha-4 [2].
